We go through eleven compounds from ChEMBL document CHEMBL4706632, “Development of Potential Antitumor Agents from the Scaffolds of Plant-Derived Terpenoid Lactones” (J Med Chem, 2020).

Experiment [1] relates to EL4. Description: Cytotoxicity against mouse EL4 cells incubated for 48 hrs by sulforhodamine B staining based ELISA. The settings on record: EL4, 48 h. Format: functional, cell-based. In general terms: The SRB assay estimates cell density from bound dye.
In experiment [2] the test system is LNCaP. Description: Cytotoxicity against human LNCAP cells incubated for 48 hrs clonogenic survival assay. Type of experiment: functional, cell-based. To be noted: time 48 hrs, read-out: LD50 (the source's name).
A short description of experiment [3]: Cytotoxicity against human TSU-Pr1 cells incubated for 2 hrs. To be noted: TSU-Pr1, 2 h. Format: functional, cell-based.
In experiment [4] the test system is CCRF S-180. Nature of the experiment: Cytotoxicity against mouse CCRF S-180 cells incubated for 48 hrs by sulforhodamine B staining based ELISA. The settings on record: CCRF S-180, 48 h. Type of experiment: functional, cell-based.
The target of experiment [5] is Sarcoplasmic/endoplasmic reticulum calcium ATPase 1 (Oryctolagus cuniculus, UniProt P04191). Nature of the experiment: Inhibition of rabbit skeletal muscle SERCA1 assessed as reduction in calcium uptake preincubated for 10 mins followed by ATP addition and measured after 4 mins by scintillation liquid method.
Sequence of Sarcoplasmic/endoplasmic reticulum calcium ATPase 1 (P04191 whole entry): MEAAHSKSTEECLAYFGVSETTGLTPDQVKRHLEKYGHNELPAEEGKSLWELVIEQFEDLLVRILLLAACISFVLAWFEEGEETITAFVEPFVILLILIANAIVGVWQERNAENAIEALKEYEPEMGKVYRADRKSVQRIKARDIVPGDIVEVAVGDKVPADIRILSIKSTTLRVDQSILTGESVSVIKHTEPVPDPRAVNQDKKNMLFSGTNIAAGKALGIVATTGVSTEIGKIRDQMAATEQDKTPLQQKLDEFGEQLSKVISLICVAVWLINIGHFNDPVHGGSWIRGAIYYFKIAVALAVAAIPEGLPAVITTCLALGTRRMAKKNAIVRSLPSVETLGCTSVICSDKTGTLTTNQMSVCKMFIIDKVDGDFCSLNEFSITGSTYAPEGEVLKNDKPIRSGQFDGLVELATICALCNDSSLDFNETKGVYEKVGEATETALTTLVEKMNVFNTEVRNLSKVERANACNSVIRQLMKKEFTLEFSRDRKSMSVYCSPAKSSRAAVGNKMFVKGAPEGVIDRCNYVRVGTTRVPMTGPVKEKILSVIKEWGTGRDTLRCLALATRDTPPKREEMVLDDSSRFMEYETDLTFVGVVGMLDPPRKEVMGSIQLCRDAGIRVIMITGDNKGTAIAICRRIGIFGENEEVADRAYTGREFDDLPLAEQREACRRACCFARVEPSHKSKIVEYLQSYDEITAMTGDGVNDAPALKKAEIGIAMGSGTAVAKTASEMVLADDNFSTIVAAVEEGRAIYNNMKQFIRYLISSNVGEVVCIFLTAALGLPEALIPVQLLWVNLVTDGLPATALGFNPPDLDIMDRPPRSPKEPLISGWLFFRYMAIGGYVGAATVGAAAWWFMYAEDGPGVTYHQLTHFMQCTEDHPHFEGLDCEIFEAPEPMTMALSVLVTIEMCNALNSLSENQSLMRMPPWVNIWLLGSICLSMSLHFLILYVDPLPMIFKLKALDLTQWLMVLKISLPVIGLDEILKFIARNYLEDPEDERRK
Experiment [6] relates to MCF7. Nature of the experiment: Cytotoxicity against human MCF7 cells incubated for 48 hrs by sulforhodamine B staining based ELISA. Format: functional, cell-based. To be noted: MCF7, 48 h.
Experiment [7] in a line: Inhibition of PAFR in New Zealand rabbit platelets assessed as reduction in PAF-induced platelet aggregation measured within 5 mins by aggregometry analysis. Format: tissue-based. The settings on record: Oryctolagus cuniculus.
A short description of experiment [8]: Antiproliferative activity against human OVCA429 cells incubated for 72 hrs by MTT assay. To be noted: OVCA429, 72 h. Type of experiment: functional, cell-based. A general note: Formazan colour is commonly taken as a measure of viable cells.
Experiment [9] can be described thus: Suppression of ZEB1 protein level in human T-24 cells incubated for 24 hrs by Western blot analysis. Type of experiment: functional, cell-based. To be noted: T-24, 24 h.
Experiment [10] is described as follows: Inhibition of [3H]PAF-acether binding to PAFR in rabbit platelet plasma membranes incubated for 1 hr. Type of experiment: cell membranes, Oryctolagus cuniculus, Cell membrane.
Experiment [11] concerns MCF7. Nature of the experiment: Cytotoxicity against human MCF7 cells incubated for 48 hrs by sulforhodamine B staining based spectrophotometric assay. Type of experiment: functional, cell-based. The settings on record: MCF7, 48 h.
The subject of experiment [12] is UACC-62. Description: Cytotoxicity against human UACC-62 cells incubated for 48 hrs by sulforhodamine B staining based spectrophotometric assay. To be noted: UACC-62, 48 h. Format: functional, cell-based.
In experiment [13] the test system is HT-29. Description: Antiproliferative activity against human HT-29 cells. Format: functional, cell-based.
In experiment [14] the test system is HeLa. Description: Antiproliferative activity against human HeLa cells. Type of experiment: functional, cell-based.
Experiment [15] concerns MDA-MB-435. Description: Antiproliferative activity against human MDA-MB-435 cells incubated for 48 hrs by [3H]-thymidine incorporation assay. Format: functional, cell-based.
The subject of experiment [16] is SW480. Nature of the experiment: Antiproliferative activity against human SW480 cells incubated for 72 hrs by MTT assay. Format: functional, cell-based. To be noted: SW480, 72 h.
The test system of experiment [17] is MCF7. Description: Antiproliferative activity against human MCF7 cells incubated for 48 hrs by [3H]-thymidine incorporation assay. Format: functional, cell-based.
For experiment [18], the system named is HeLa. Description: Cytotoxicity against human HeLa cells incubated for 48 hrs by SRB assay. Format: functional, cell-based.
The test system of experiment [19] is HepG2. Nature of the experiment: Cytotoxicity against human HepG2 cells incubated for 48 hrs by SRB assay. Format: functional, cell-based. To be noted: HepG2, 48 h.
Experiment [20] concerns IMR-32. Nature of the experiment: Cytotoxicity against human IMR-32 cells incubated for 48 hrs by SRB assay. Type of experiment: functional, cell-based. To be noted: IMR-32, 48 h.
For experiment [21], the system named is NCI-H1975. Description: Antiproliferative activity against human NCI-H1975 cells incubated for 48 hrs by MTT assay. To be noted: NCI-H1975, 48 h. Type of experiment: functional, cell-based.
Experiment [22] has as its system A549. Description: Antiproliferative activity against human A549 cells incubated for 48 hrs by MTT assay. The settings on record: A549, 48 h. Format: functional, cell-based.
In experiment [23] the test system is P388. Description: Cytotoxicity against mouse P388 cells incubated for 48 hrs by MTT assay. Format: functional, cell-based. The settings on record: P388, 48 h.
In experiment [24] the test system is MDA-MB-231. Nature of the experiment: Cytotoxicity against human MDA-MB-231 cells incubated for 72 hrs by MTT assay. Format: functional, cell-based. The settings on record: MDA-MB-231, 72 h.
Experiment [25] has as its system HCT-116. Nature of the experiment: Antiproliferative activity against human HCT-116 cells incubated for 72 hrs by WST-1 assay. Format: functional, cell-based. The settings on record: HCT-116, 72 h.
Experiment [26] concerns MCF7. Description: Cytotoxicity against human MCF-7 cells incubated for 72 hrs by MTT assay. To be noted: MCF7, 72 h. Format: functional, cell-based.
Experiment [27] has as its system HL-60. Description: Antiproliferative activity against human HL-60 cells. Type of experiment: functional, cell-based.
Experiment [28] has as its system A2058. Nature of the experiment: Cytotoxicity against human A2058 cells incubated for 48 hrs by MTT assay. Format: functional, cell-based. To be noted: A2058, 48 h.
The test system of experiment [29] is HCT-116. Description: Cytotoxicity against human HCT-116 cells. Type of experiment: functional, cell-based.
The subject of experiment [30] is MDA-MB-231. Description: Cytotoxicity against human MDA-MB-231 cells incubated for 48 hrs by MTT assay. Type of experiment: functional, cell-based. The settings on record: MDA-MB-231, 48 h.
For experiment [31], the system named is MCF7. Description: Antiproliferative activity against human MCF7 cells incubated for 48 hrs by SRB assay. To be noted: MCF7, 48 h. Type of experiment: functional, cell-based.
The test system of experiment [32] is P388. Nature of the experiment: Antiproliferative activity against mouse P388 cells. Format: functional, cell-based.
For experiment [33], the system named is HL-60. Nature of the experiment: Antiproliferative activity against human HL-60 cells incubated for 24 hrs by MTT assay. Type of experiment: functional, cell-based. To be noted: HL-60, 24 h.
Experiment [34] concerns HT-29. Nature of the experiment: Cytotoxicity against human HT-29 cells incubated for 48 hrs by MTT assay. Type of experiment: functional, cell-based. To be noted: HT-29, 48 h.
The subject of experiment [35] is HT-29. Nature of the experiment: Cytotoxicity against human HT-29 cells incubated for 24 hrs by MTS method. Type of experiment: functional, cell-based. To be noted: HT-29, 24 h.
The test system of experiment [36] is Bel-7402. Nature of the experiment: Cytotoxicity against human Bel-7402 cells incubated for 24 hrs by MTS method. Type of experiment: functional, cell-based. The settings on record: Bel-7402, 24 h.
A short description of experiment [37]: Cytotoxicity against human MDA-Panc-28 cells incubated for 24 hrs by MTS method. Type of experiment: functional, cell-based. To be noted: MDA-Panc-28, 24 h.

A word on the IC50: it is the concentration needed to halve the response being measured. `C/C=C(/C)C(=O)O[C@H]1C(C)=C2[C@H]([C@@H]1OC(=O)CCCCCCC)[C@@](C)(OC(C)=O)C[C@H](OC(=O)CCC)[C@@]1(O)[C@H]2OC(=O)[C@@]1(C)O` [THAPSIGARGIN]: the IC50 was determined as 100 nM in [1]; 30 nM in [3]; 30 nM in [4]; 3.9 nM in [5]; 2300 nM in experiment [6]. Moreover, in [2], the CC50 worked out at 10 nM.

`C[C@@H]1C(=O)O[C@H]2[C@H](O)[C@@]34[C@H]5C[C@@H](C(C)(C)C)[C@]36[C@@H](OC(=O)[C@@H]6O)O[C@@]4(C(=O)O5)[C@@]12O` [GINKOLIDE B]: the IC50 was 130 nM in experiment [7], over 50000 nM in experiment [8], 500 nM in experiment [9] and 250 nM in experiment [10].

For the compound `CC(=O)O[C@H]1C=C2C(=O)C3=C(C)C(=O)O[C@@H]3C[C@H]2[C@]2(C)CCCC(C)(C)[C@@H]12`, the IC50 in experiment [11] turned out to be 130 nM; in [12], 80 nM.

For the compound `COC(=O)[C@@]12OC[C@]34[C@H]([C@@H](O)[C@@H]1O)[C@@]1(C)CC(=O)C(O)=C(C)[C@@H]1C[C@H]3OC(=O)[C@H](OC(=O)/C=C(\C)C(C)C)[C@@H]24` [BRUCEANTIN], the IC50 was 22 nM in experiment [13] and 29 nM in experiment [14].

As to `CC1(C)OC(=O)C=C[C@]2(C)[C@H]3CC[C@@](C)([C@@H](O[C@H]4O[C@H](CO)[C@@H](O)[C@H](O)[C@H]4O)c4ccoc4)[C@@]4(O[C@@H]4C(=O)O)[C@]3(C)C(=O)C[C@@H]12`, the IC50 in [15] amounted to 10000 nM; in experiment [16], 60000 nM; in experiment [17], 3200 nM.

Turning to `C=C1[C@@H]2CC[C@@]3(C)[C@H](c4ccoc4)OC(=O)C[C@]13O[C@H]1C[C@H](OC(=O)CN3CCN(C(=O)c4ccccc4)CC3)C(C)(C)[C@H](CC(=O)OC)[C@]12C`, the results for the IC50 in [18], in [19] and in experiment [20] were 14000 nM, 10 nM and over 100000 nM, respectively.

For `C=C1[C@@H]2CC[C@@]3(C)[C@H](c4ccoc4)OC(=O)C[C@]13O[C@H]1C[C@H](OC(C)=O)C(C)(C)[C@H](CC(=O)OC)[C@]12C`, the results for the half-inhibitory concentration (IC50) in [18], in experiment [19] and in experiment [20] were 61000 nM, over 100000 nM and 22 nM, respectively.

For `CC(C)[C@H]1OC(=O)C=C2[C@@]13O[C@@H]3[C@H]1OC(=O)[C@@]3(C)[C@@H](O)CC[C@@]2(C)[C@@H]13`, the IC50 in experiment [21] stood at 3600 nM; in experiment [22] it was 5200 nM; in [23], 720 nM.

In the case of `COC(=O)[C@@]12OC[C@]34[C@H]([C@@H](O)[C@@H]1O)[C@@]1(C)CC(=O)C(O)=C(C)[C@@H]1C[C@H]3OC(=O)[C@H](OC(=O)CC(C)C)[C@@H]24` [BRUCEINE A], the IC50 was found to be 230 nM in experiment [24]; 3100 nM in experiment [13]; 82 nM in experiment [25]; 1100 nM in experiment [14]; 180 nM in experiment [26]; 130 nM in experiment [27].

In the case of `C=C1CC[C@@H]2[C@](C)(CO)[C@H](O)CC[C@@]2(C)[C@@H]1C/C=C1/C(=O)OC[C@H]1O` [ANDROGRAPHOLIDE], the 50% inhibitory concentration (IC50) was 26000 nM in [28]; over 40000 nM in experiment [29]; over 30000 nM in [30]; 15000 nM in [31]; 2900 nM in [32]; 7000 nM in [27]. The 50% inhibitory concentration (IC50) was 2400 nM in experiment [33] and over 30000 nM in experiment [34].

With `CO[C@@]12OC(=O)C(CO)=C1[C@H]1O[C@]13CC[C@@H]1C(C)(C)CCC[C@@]1(C)[C@@H]3[C@H]2O`, the 50% inhibitory concentration (IC50) in [35], in experiment [36] and in experiment [37] was over 50000 nM in each case.
